In patent publication US12441736B2, “KIF18A inhibitors” (AMGEN INC., priority 2018, dated 2025):

Target: T1, Recombinant human KIF18A (1-467 His-tagged) protein (Homo sapiens, UniProt Q8NI77)
T1 construct: Recombinant human KIF18A (1-467 His-tagged) protein; His; made in house
Assay: KIF18A Enzyme Assay: microtubule-stimulated ATPase activity (ADP-Glo)
Type: biochemical
Conditions: 30 nM KIF18A, 30 μg/mL pig microtubules, 75 μM ATP, ADP-Glo luminescence
Excerpt: KIF18A Enzyme Assay: Microtubule-stimulated ATPase activity assay is used to measure KIF18A enzyme activity after treatment with compound. Compounds were 2-fold serially diluted in DMSO (Sigma Inc) over 22-point concentration range. Recombinant human KIF18A (1-467 His-tagged) protein was expressed using a baculovirus system and purified by affinity chromatography by Amgen Inc. Concentrations of KIF18A protein, microtubules (MT), and ATP in the reaction were optimized for standardized homogenous enzyme assay using ADP-Glo™ Kinase/ATPase Assay Kit (Promega Inc). The assay measures ADP formed from the ATPase reaction. Prepare reaction buffer [(15 mM Tris, pH 7.5 (Teknova Inc), 10 mM MgCl2 (IT Baker Inc), 0.01% Pluronic F-68 (Life Technologies Inc), 1 μM Taxol (Cytoskeleton Inc), and 30 μg/mL pig microtubules (Cytoskeleton Inc)]. Add compound and KIF18A protein (30 nM) to prepared reaction buffer and incubated for 15 minutes at room temperature, next add ATP (at Kin, 75 μM) to the reaction mixture and incubated for an additional 15 minutes at room temperature. Mix 5 μl of ADP-Glo™ Reagent and 2.5 μl of the reaction mixture and incubate for 40 minutes at room temperature. Add 10 μl ADP-Glo™ Detection Reagent and incubate for 40 minutes at room temperature. Read luminescence using EnVision microplate reader with ultra-luminescence module (Perkin Elmer Inc). Concentration-response curve-fitting and IC50 determination was performed using Genedata Screener Software (Standard 15.0.1, Genedata Inc) with a four-parameter logistic regression fit model.
Table A provides data for compounds exemplified in the present application and priority document thereof, as representative compounds of the present invention, as follows: chemical name (as named by either ACD software or ChemDraw (Professional 15.0)) and biological data (IC50 in μM). Ex. # refers to Example No.

T1 sequence (Q8NI77 1-467): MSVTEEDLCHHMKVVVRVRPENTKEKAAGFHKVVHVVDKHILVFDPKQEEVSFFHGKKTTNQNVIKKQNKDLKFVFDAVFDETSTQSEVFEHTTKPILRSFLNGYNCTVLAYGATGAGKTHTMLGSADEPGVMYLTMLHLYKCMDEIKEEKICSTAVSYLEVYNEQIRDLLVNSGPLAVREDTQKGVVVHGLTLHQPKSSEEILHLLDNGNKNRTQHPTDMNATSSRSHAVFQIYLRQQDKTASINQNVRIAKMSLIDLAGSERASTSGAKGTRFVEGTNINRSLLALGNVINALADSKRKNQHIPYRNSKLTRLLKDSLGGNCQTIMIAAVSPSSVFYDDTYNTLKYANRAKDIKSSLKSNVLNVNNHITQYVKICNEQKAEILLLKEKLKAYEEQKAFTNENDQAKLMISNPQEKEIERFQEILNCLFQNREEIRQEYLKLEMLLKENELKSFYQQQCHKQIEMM
T1 sequence (P02550 whole entry partner): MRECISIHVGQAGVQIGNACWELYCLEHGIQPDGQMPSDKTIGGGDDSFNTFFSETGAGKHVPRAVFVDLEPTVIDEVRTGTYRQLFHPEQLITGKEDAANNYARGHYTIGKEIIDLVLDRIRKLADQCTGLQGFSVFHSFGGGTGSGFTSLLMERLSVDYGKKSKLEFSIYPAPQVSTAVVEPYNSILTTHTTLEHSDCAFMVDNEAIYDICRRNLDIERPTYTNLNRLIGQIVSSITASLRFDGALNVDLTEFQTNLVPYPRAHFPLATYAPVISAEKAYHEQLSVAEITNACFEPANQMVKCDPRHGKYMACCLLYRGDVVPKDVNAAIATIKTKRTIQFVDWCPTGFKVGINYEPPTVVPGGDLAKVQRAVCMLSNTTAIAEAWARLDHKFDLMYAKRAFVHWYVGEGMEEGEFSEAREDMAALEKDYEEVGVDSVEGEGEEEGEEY
T1 sequence (P02554 whole entry partner): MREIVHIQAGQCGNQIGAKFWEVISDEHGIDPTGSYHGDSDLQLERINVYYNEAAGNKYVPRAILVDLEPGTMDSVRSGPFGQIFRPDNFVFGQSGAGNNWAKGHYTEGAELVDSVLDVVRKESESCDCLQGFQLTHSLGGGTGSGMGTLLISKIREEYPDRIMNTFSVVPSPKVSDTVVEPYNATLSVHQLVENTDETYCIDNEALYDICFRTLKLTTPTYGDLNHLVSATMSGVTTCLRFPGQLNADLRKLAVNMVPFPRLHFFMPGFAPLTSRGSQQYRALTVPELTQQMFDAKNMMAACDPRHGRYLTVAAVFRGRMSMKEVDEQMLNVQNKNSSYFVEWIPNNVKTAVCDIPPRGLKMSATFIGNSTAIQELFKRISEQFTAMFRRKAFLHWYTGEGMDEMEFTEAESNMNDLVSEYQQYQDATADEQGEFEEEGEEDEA

| IC50 [nM] | Structure (SMILES) |
| --- | --- |
| 116 | CC(C)(C)NS(=O)(=O)c1cccc(NC(=O)c2ccc([C@@](O)(CO)C(F)(F)F)nc2N2CCC3(CC2)CC3)n1 (single isomer, unassigned) [Example 175] |
| 101 | CC(C)(C)NS(=O)(=O)c1cccc(NC(=O)c2ccc([C@](O)(CO)C(F)(F)F)nc2N2CCC3(CC2)CC3)n1 (single isomer, unassigned) [Example 176] |
| 87.3 | CC(C)(C)NS(=O)(=O)c1cccc(NC(=O)c2ccc([C@](C)(O)CO)nc2N2CCC3(CC2)CC3)n1 (single isomer, unassigned) [Example 177] |
| 109 | CC(C)(C)NS(=O)(=O)c1cccc(NC(=O)c2ccc([C@@](C)(O)CO)nc2N2CCC3(CC2)CC3)n1 (single isomer, unassigned) [Example 178] |
| 76.9 | O=C(Nc1cccc(N2CCOCC2)n1)c1ccc([C@@](O)(CO)C(F)(F)F)nc1N1CCC2(CC1)CC2 (single isomer, unassigned) [Example 201] |
| 68.4 | O=C(Nc1cccc(N2CCOCC2)n1)c1ccc([C@](O)(CO)C(F)(F)F)nc1N1CCC2(CC1)CC2 (single isomer, unassigned) [Example 202] |
| 116 | C[C@@H]1CN(c2cccc(NC(=O)c3ccc([C@@](O)(CO)C(F)(F)F)nc3N3CCC4(CC3)CC4)n2)CCO1 (single isomer, unassigned) [Example 206] |
| 105 | C[C@@H]1CN(c2cccc(NC(=O)c3ccc([C@](O)(CO)C(F)(F)F)nc3N3CCC4(CC3)CC4)n2)CCO1 (single isomer, unassigned) [Example 207] |
| 2250 | CC1(C)COC(=O)N1c1ccc(C(=O)Nc2cccc(N3CC[C@H](O)C3(C)C)n2)c(N2CCC3(CC2)CC3)n1 (stereo in doubt) [Example 220, 6-(4,4-dimethyl-2-oxooxazolidin-3-yl)-N-(6-(3-hydroxy-2,2-dimethylpyrrolidin-l-yl)pyridin-2-yl)-2-(6-azaspiro[2.5]octan-6-yl)nicotinamide] |
| 70.5 | CC(C)(CO)Nc1cnc(C(=O)Nc2cccc(S(=O)(=O)N3CCCCC3)n2)c(N2CCC3(CC2)CC3)n1 [Example 100, 5-((1-hydroxy-2-methylpropan-2-yl)amino)-N-(6-(piperidin-1-ylsulfonyl)pyridin-2-yl)-3-(6-azaspiro[2.5]octan-6-yl)pyrazine-2-carboxamide] |
| 106 | O=C(Nc1cccc(S(=O)(=O)N2CCCCC2)n1)c1ncc(NC2(CO)CC2)nc1N1CCC2(CC1)CC2 [Example 101, 3-(6-azaspiro[2.5]oct-6-yl)-5-((1-(hydroxymethyl)cyclopropyl)amino)-N-(6-(1-piperidinylsulfonyl)-2-pyridinyl)-2-pyrazinecarboxamide] |
| 75.3 | CC(C)(C)NS(=O)(=O)c1cccc(NC(=O)c2ncc(NC(C)(C)CO)nc2N2CCC3(CC2)CC3)n1 [Example 102, N-(6-(N-(tert-butyl)sulfamoyl)pyridin-2-yl)-5-((1-hydroxy-2-methylpropan-2-yl)amino)-3-(6-azaspiro[2.5]octan-6-yl)pyrazine-2-carboxamide] |
| 1940 | C[C@@H]1CN(c2cccc(NC(=O)c3ncc(N4C(=O)OCC4(C)C)nc3N3CCC4(CC3)CC4)n2)CCO1 [Example 103, 3-(6-azaspiro[2.5]oct-6-yl)-5-(4,4-dimethyl-2-oxo-1,3-oxazolidin-3-yl)-N-(6-((2R)-2-methyl-4-morpholinyl)-2-pyridinyl)-2-pyrazinecarboxamide] |
| 83.4 | C[C@@H]1CN(c2cccc(NC(=O)c3ncc(NC(C)(C)CO)nc3N3CCC4(CC3)CC4)n2)CCO1 [Example 104, (R)-5-((1-hydroxy-2-methylpropan-2-yl)amino)-N-(6-(2-methylmorpholino)pyridin-2-yl)-3-(6-azaspiro[2.5]octan-6-yl)pyrazine-2-carboxamide] |
| 122 | C[C@H]1CCN(c2cccc(NC(=O)c3ncc(NC(C)(C)CO)nc3N3CCC4(CC3)CC4)n2)C1 [Example 105, 3-(6-azaspiro[2.5]oct-6-yl)-5-((1-hydroxy-2-methyl-2-propanyl)amino)-N-(6-((3S)-3-methyl-1-pyrrolidinyl)-2-pyridinyl)-2-pyrazinecarboxamide] |
| 84.4 | CC(C)(CO)Nc1cnc(C(=O)Nc2cccc(N3CCOCC3)n2)c(N2CCC3(CC2)CC3)n1 [Example 106, 3-(6-azaspiro[2.5]oct-6-yl)-5-((2-hydroxy-1,1-dimethylethyl)amino)-N-(6-(4-morpholinyl)-2-pyridinyl)-2-pyrazinecarboxamide] |
| 111 | CC1(C)CC(=O)N(c2cccc(NC(=O)c3ncc(NC(C)(C)CO)nc3N3CCC4(CC3)CC4)n2)C1 [Example 107, 3-(6-azaspiro[2.5]oct-6-yl)-N-(6-(4,4-dimethyl-2-oxo-1-pyrrolidinyl)-2-pyridinyl)-5-((1-hydroxy-2-methyl-2-propanyl)amino)-2-pyrazinecarboxamide] |
| 87.8 | CC(C)(C)NS(=O)(=O)c1cccc(NC(=O)c2ncc(NC(C)(CO)CO)nc2N2CCC3(CC2)CC3)n1 [Example 108, N-(6-(N-(tert-butyl)sulfamoyl)pyridin-2-yl)-5-((1,3-dihydroxy-2-methylpropan-2-yl)amino)-3-(6-azaspiro[2.5]octan-6-yl)pyrazine-2-carboxamide] |
| 79.3 | CC(C)(C)NS(=O)(=O)c1cccc(NC(=O)c2ncc(NC3(CO)CC3)nc2N2CCC3(CC2)CC3)n1 [Example 109, 3-(6-azaspiro[2.5]oct-6-yl)-5-((1-(hydroxymethyl)cyclopropyl)amino)-N-(6-((2-methyl-2-propanyl)sulfamoyl)-2-pyridinyl)-2-pyrazinecarboxamide] |
| 260 | CC(C)(C)NS(=O)(=O)c1cccc(NC(=O)c2ncc(C(C)(O)C(F)(F)F)nc2N2CCC3(CC2)CC3)n1 (stereo not shown) [Example 110, N-(6-(N-(tert-butyl)sulfamoyl)pyridin-2-yl)-3-(6-azaspiro[2.5]octan-6-yl)-5-(1,1,1-trifluoro-2-hydroxypropan-2-yl)pyrazine-2-carboxamide] |
| 112 | CC(C)(CO)Nc1cnc(C(=O)Nc2cc(Cl)cc(N3CCOCC3)n2)c(N2CCC3(CC2)CC3)n1 [Example 113, 3-(6-azaspiro[2.5]oct-6-yl)-N-(4-chloro-6-(4-morpholinyl)-2-pyridinyl)-5-((1-hydroxy-2-methyl-2-propanyl)amino)-2-pyrazinecarboxamide] |
| 178 | Cc1cc(NC(=O)c2ncc(NC(C)(C)CO)nc2N2CCC3(CC2)CC3)nc(N2CCOCC2)c1 [Example 114, 3-(6-azaspiro[2.5]octan-6-yl)-5-((1-hydroxy-2-methyl-2-propanyl)amino)-N-(4-methyl-6-(4-morpholinyl)-2-pyridinyl)-2-pyrazinecarboxamide] |
| 106 | CC(CO)(CO)Nc1cnc(C(=O)Nc2cccc(N3CCOCC3)n2)c(N2CCC3(CC2)CC3)n1 [Example 115, 3-(6-azaspiro[2.5]octan-6-yl)-5-((1,3-dihydroxy-2-methyl-2-propanyl)amino)-N-(6-(4-morpholinyl)-2-pyridinyl)-2-pyrazinecarboxamide] |
| 1160 | COc1cc(NC(=O)c2ncc(NC(C)(C)CO)nc2N2CCC3(CC2)CC3)nc(N2CCOCC2)c1 [Example 116, 3-(6-azaspiro[2.5]octan-6-yl)-5-((1-hydroxy-2-methyl-2-propanyl)amino)-N-(4-methoxy-6-(4-morpholinyl)-2-pyridinyl)-2-pyrazinecarboxamide] |
| 138 | CC(C)(CO)Nc1cnc(C(=O)Nc2cc(C#N)cc(N3CCOCC3)n2)c(N2CCC3(CC2)CC3)n1 [Example 117, 3-(6-azaspiro[2.5]octan-6-yl)-N-(4-cyano-6-(4-morpholinyl)-2-pyridinyl)-5-((1-hydroxy-2-methyl-2-propanyl)amino)-2-pyrazinecarboxamide] |
| 540 | CC(C)(CO)Nc1cnc(C(=O)Nc2cc(C3CC3)cc(N3CCOCC3)n2)c(N2CCC3(CC2)CC3)n1 [Example 118, 3-(6-azaspiro[2.5]octan-6-yl)-N-(4-cyclopropyl-6-(4-morpholinyl)-2-pyridinyl)-5-((1-hydroxy-2-methyl-2-propanyl)amino)-2-pyrazinecarboxamide] |
| 817 | CC(C)(C)NS(=O)(=O)c1cccc(NC(=O)c2ncc(N3C(=O)OCC3(C)C)nc2N2CCC3(CC2)CC3)n1 [Example 119, 3-(6-azaspiro[2.5]octan-6-yl)-5-(4,4-dimethyl-2-oxo-1,3-oxazolidin-3-yl)-N-(6-((2-methyl-2-propanyl)sulfamoyl)-2-pyridinyl)-2-pyrazinecarboxamide] |
| 176 | CC(C)(CO)Nc1cnc(C(=O)Nc2cccc(N3CCO[C@H](CO)C3)n2)c(N2CCC3(CC2)CC3)n1 [Example 120, 3-(6-azaspiro[2.5]octan-6-yl)-N-(6-((2S)-2-(hydroxymethyl)-4-morpholinyl)-2-pyridinyl)-5-((1-hydroxy-2-methyl-2-propanyl)amino)-2-pyrazinecarboxamide] |
